From ChEMBL document CHEMBL4477195, “Bridged Epipolythiodiketopiperazines from Penicillium raciborskii, an Endophytic Fungus of Rhododendron tomentosum Harmaja” (2016)
The source made the active and inactive calls. No cut-off for these calls is given here.

Tests used:
[1] = system: Fusarium oxysporum; experiment: Antifungal activity against Fusarium oxysporum assessed as fungal growth inhibition at 0.38 mM incubated in dark for 48 hrs by microspectrophotometric analysis; type: functional, organism-based
[2] = system: Botrytis cinerea; experiment: Antifungal activity against Botrytis cinerea assessed as fungal growth inhibition at 0.76 mM incubated in dark for 48 hrs by microspectrophotometric analysis; type: functional, organism-based
[3] = system: Fusarium oxysporum; experiment: Antifungal activity against Fusarium oxysporum assessed as fungal growth inhibition at 0.76 mM incubated in dark for 48 hrs by microspectrophotometric analysis; type: functional, organism-based
[4] = system: Botrytis cinerea; experiment: Antifungal activity against Botrytis cinerea assessed as fungal growth inhibition at 0.38 mM incubated in dark for 48 hrs by microspectrophotometric analysis; type: functional, organism-based
[5] = system: Verticillium dahliae; experiment: Antifungal activity against Verticillium dahliae assessed as fungal growth inhibition at 0.38 mM incubated in dark for 48 hrs by microspectrophotometric analysis; type: functional, organism-based
[6] = system: Verticillium dahliae; experiment: Antifungal activity against Verticillium dahliae assessed as fungal growth inhibition at 0.76 mM incubated in dark for 48 hrs by microspectrophotometric analysis; type: functional, organism-based
[7] = system: Botrytis cinerea; experiment: Antifungal activity against Botrytis cinerea assessed as fungal growth inhibition at 10 to 400 ug/mL incubated in dark for 48 hrs by microspectrophotometric analysis; type: functional
[8] = system: Verticillium dahliae; experiment: Antifungal activity against Verticillium dahliae assessed as fungal growth inhibition at 10 to 400 ug/mL incubated in dark for 48 hrs by microspectrophotometric analysis; type: functional

Q: With COc1ccc(C2SSS[C@@]34C[C@]5(O)[C@H](O)C=C[C@@H](O)[C@@H]5ON3C(=O)[C@@H]2N(C)C4=O)c(O)c1OC (stereo partly drawn) as the compound, how does the “growth inhibition (GI)” value [1] read?
A: Active

Q: And the “growth inhibition (GI)” value [2]?
A: Active

Q: What about the “growth inhibition (GI)” value [3] of the same compound?
A: Active

Q: What about the “growth inhibition (GI)” value [4] of the same compound?
A: Active

Q: What about the “growth inhibition (GI)” value [5] of the same compound?
A: Active

Q: And the “growth inhibition (GI)” value [6]?
A: Active

Q: And the “growth inhibition (GI)” value [7]?
A: 57%

Q: What about the “growth inhibition (GI)” value [8] of the same compound?
A: 45%
